# Measurements taken from patent US9937151B2, “Carbapenem antibacterials with gram-negative activity” (priority 2010, dated 2018).
# System: G(−) bacterial strains
# Assay: Dilution antimicrobial susceptibility tests (MIC, NCCLS agar dilution / broth dilution)
# Type: cell-based, Gram-negative organisms
# Conditions: unit assumed
# In short: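 Agar dilution on Mueller-Hinton agar at 10^4 CFU/spot and broth dilution at 5×10^5 CFU/well, per NCCLS M7-A5. Streptococci tested on Mueller-Hinton agar with 5% sheep blood. MIC taken as minimum inhibitory concentration; ATCC control strains run alongside.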
# [1] = strain #1 Acinetobacter calcoaceticus
# [2] = strain #2 Acinetobacter baumannii, Cf-R, Ci-R
# [3] = strain #3 Acinetobacter baumannii, Cf-R, Ci-R, Mp-I
# [4] = strain #4 Acinetobacter baumannii, Cf-R, Imp-I, CBPase
# [5] = strain #7 Enterobacter aerogenes
# [6] = strain #8 Enterobacter cloacae, Cf-R, B+
# [7] = strain #9 Enterobacter cloacae, Cf-R
# [8] = strain #10 Escherichia coli, Ci-R
# [9] = strain #11 Escherichia coli, Ci-R, AmpC
# [10] = strain #15 Klebsiella pneumoniae
# [11] = strain #16 Moraxella catarrhalis
# [12] = strain #21 Providencia rettgeri
# [13] = strain #22 Salmonella typhimurium
# [14] = strain #25 Shigella dysenteriae
# [15] = strain #28 Stenotrophomonas maltophilia
# [16] = strain #29 Pseudomonas aeruginosa
# [17] = strain #30 Pseudomonas aeruginosa
# [18] = strain #31 Pseudomonas aeruginosa, Ofx-R
# [19] = strain #32 Pseudomonas aeruginosa, Cf-R
# [20] = strain #33 Pseudomonas aeruginosa, Ci-R
# [21] = strain #34 Pseudomonas aeruginosa, Gen-R
# [22] = strain #35 Pseudomonas aeruginosa, Ip-R
# [23] = strain #36 Pseudomonas aeruginosa, Cf-R, Ci-R, Mp-R
Compound,MIC [1],MIC [2],MIC [3],MIC [4],MIC (strain #5 Citrobacter diversus),MIC (strain #6 Citrobacter freundii),MIC [5],MIC [6],MIC [7],MIC [8],MIC [9],MIC (strain #12 Escherichia coli),MIC (strain #13 Escherichia coli),MIC (strain #14 Klebsiella oxytoca),MIC [10],MIC [11],MIC (strain #17 Morganella Morganii),MIC (strain #18 Morganella Morganii),MIC (strain #19 Proteus vulgaris),MIC (strain #20 Proteus mirabilis),also measured
C[C@@H](O)C1C(=O)N2C(C(=O)O)=C(CN3CC[C@@H](C(N)=O)C3)[C@H](C)C12 (stereo partly shown) [Compound 115],0.5 mg/L,1 mg/L,2 mg/L,1 mg/L,0.25 mg/L,0.25 mg/L,1 mg/L,0.13 mg/L,0.25 mg/L,0.25 mg/L,0.25 mg/L,0.25 mg/L,0.25 mg/L,0.25 mg/L,0.5 mg/L,≤ 0.008 mg/L,2 mg/L,2 mg/L,1 mg/L,0.25 mg/L,MIC [12]: 1 mg/L; MIC [13]: 0.25 mg/L; MIC (strain #23 Serratia marcescens): 0.5 mg/L; MIC (strain #24 Serratia marcescens): 1 mg/L; MIC [14]: 0.25 mg/L; MIC (strain #26 Shigella sonnei): 0.25 mg/L; MIC (strain #27 Shigella flexneri): 0.25 mg/L; MIC [15]: 0.25 mg/L; MIC [16]: 4 mg/L; MIC [17]: 4 mg/L; MIC [18]: 1 mg/L; MIC [19]: 4 mg/L; MIC [20]: 8 mg/L; MIC [21]: 8 mg/L; MIC [22]: 8 mg/L; MIC [23]: > 32 mg/L
C[C@@H](O)C1C(=O)N2C(C(=O)O)=C(CN3CC[C@H](C(=O)N(C)C)C3)[C@H](C)C12 (stereo partly shown) [Compound 120],4 mg/L,8 mg/L,16 mg/L,4 mg/L,0.5 mg/L,0.5 mg/L,2 mg/L,0.5 mg/L,1 mg/L,0.5 mg/L,0.5 mg/L,0.5 mg/L,0.5 mg/L,1 mg/L,1 mg/L,0.016 mg/L,8 mg/L,4 mg/L,4 mg/L,0.5 mg/L,MIC [12]: 2 mg/L; MIC [13]: 0.5 mg/L; MIC (strain #23 Serratia marcescens): 1 mg/L; MIC (strain #24 Serratia marcescens): 2 mg/L; MIC [14]: 0.5 mg/L; MIC (strain #26 Shigella sonnei): 0.5 mg/L; MIC (strain #27 Shigella flexneri): 0.5 mg/L; MIC [15]: 1 mg/L; MIC [16]: 16 mg/L; MIC [17]: 16 mg/L; MIC [18]: 4 mg/L; MIC [19]: 16 mg/L; MIC [20]: 16 mg/L; MIC [21]: 16 mg/L; MIC [22]: > 32 mg/L; MIC [23]: > 32 mg/L
CNC(=O)[C@H]1CCN(CC2=C(C(=O)O)N3C(=O)C([C@@H](C)O)C3[C@H]2C)C1 (stereo partly shown) [Compound 127],1 mg/L,1 mg/L,4 mg/L,2 mg/L,0.5 mg/L,0.5 mg/L,2 mg/L,0.5 mg/L,1 mg/L,0.5 mg/L,0.5 mg/L,0.5 mg/L,0.5 mg/L,1 mg/L,1 mg/L,≤ 0.008 mg/L,4 mg/L,4 mg/L,2 mg/L,0.5 mg/L,MIC [12]: 2 mg/L; MIC [13]: 0.5 mg/L; MIC (strain #23 Serratia marcescens): 1 mg/L; MIC (strain #24 Serratia marcescens): 2 mg/L; MIC [14]: 1 mg/L; MIC (strain #26 Shigella sonnei): 0.5 mg/L; MIC (strain #27 Shigella flexneri): 0.5 mg/L; MIC [15]: 0.5 mg/L; MIC [16]: 8 mg/L; MIC [17]: 8 mg/L; MIC [18]: 2 mg/L; MIC [19]: 8 mg/L; MIC [20]: 8 mg/L; MIC [21]: 8 mg/L; MIC [22]: 16 mg/L; MIC [23]: > 32 mg/L
C[C@@H](O)C1C(=O)N2C(C(=O)O)=C(CN3CC[C@H](C(=O)NS(C)(=O)=O)C3)[C@H](C)C12 (stereo partly shown) [Compound 132],4 mg/L,16 mg/L,16 mg/L,32 mg/L,0.25 mg/L,0.25 mg/L,1 mg/L,0.25 mg/L,0.5 mg/L,0.25 mg/L,0.25 mg/L,0.25 mg/L,0.25 mg/L,0.5 mg/L,0.5 mg/L,0.016 mg/L,4 mg/L,4 mg/L,1 mg/L,0.25 mg/L,MIC [12]: 1 mg/L; MIC [13]: 0.25 mg/L; MIC (strain #23 Serratia marcescens): 0.5 mg/L; MIC (strain #24 Serratia marcescens): 1 mg/L; MIC [14]: 0.25 mg/L; MIC (strain #26 Shigella sonnei): 0.25 mg/L; MIC (strain #27 Shigella flexneri): 0.13 mg/L; MIC [15]: 2 mg/L
C[C@@H](O)C1C(=O)N2C(C(=O)O)=C(CN3CC[C@H](C(=O)NCC(N)=O)C3)[C@H](C)C12 (stereo partly shown) [Compound 137],1 mg/L,2 mg/L,8 mg/L,2 mg/L,0.5 mg/L,1 mg/L,2 mg/L,0.5 mg/L,1 mg/L,0.5 mg/L,0.5 mg/L,0.5 mg/L,1 mg/L,1 mg/L,1 mg/L,≤ 0.008 mg/L,4 mg/L,4 mg/L,2 mg/L,0.5 mg/L,MIC [12]: 2 mg/L; MIC [13]: 1 mg/L; MIC (strain #23 Serratia marcescens): 2 mg/L; MIC (strain #24 Serratia marcescens): 2 mg/L; MIC [14]: 1 mg/L; MIC (strain #26 Shigella sonnei): 1 mg/L; MIC (strain #27 Shigella flexneri): 0.5 mg/L; MIC [15]: 0.5 mg/L
C[C@@H](O)C1C(=O)N2C(C(=O)O)=C(CN3CC[C@H](C(=O)NC(=N)N)C3)[C@H](C)C12 (stereo partly shown) [Compound 143],8 mg/L,32 mg/L,32 mg/L,> 32 mg/L,0.5 mg/L,1 mg/L,4 mg/L,0.5 mg/L,1 mg/L,0.5 mg/L,0.5 mg/L,0.5 mg/L,0.5 mg/L,1 mg/L,2 mg/L,0.063 mg/L,16 mg/L,8 mg/L,8 mg/L,1 mg/L,MIC [12]: 2 mg/L; MIC [13]: 0.5 mg/L; MIC (strain #23 Serratia marcescens): 1 mg/L; MIC (strain #24 Serratia marcescens): 2 mg/L; MIC [14]: 1 mg/L; MIC (strain #26 Shigella sonnei): 1 mg/L; MIC (strain #27 Shigella flexneri): 0.5 mg/L; MIC [15]: 4 mg/L
C[C@@H](O)C1C(=O)N2C(C(=O)O)=C(CN3CC[C@H](O)C3)[C@H](C)C12 (stereo partly shown) [Compound 146],1 mg/L,1 mg/L,2 mg/L,4 mg/L,0.5 mg/L,0.5 mg/L,2 mg/L,0.25 mg/L,1 mg/L,0.25 mg/L,0.25 mg/L,0.5 mg/L,0.5 mg/L,1 mg/L,1 mg/L,0.016 mg/L,8 mg/L,8 mg/L,4 mg/L,0.5 mg/L,MIC [12]: 2 mg/L; MIC [13]: 0.5 mg/L; MIC (strain #23 Serratia marcescens): 2 mg/L; MIC (strain #24 Serratia marcescens): 2 mg/L; MIC [14]: 0.5 mg/L; MIC (strain #26 Shigella sonnei): 0.5 mg/L; MIC (strain #27 Shigella flexneri): 0.25 mg/L; MIC [15]: 0.5 mg/L
C[C@@H](O)C1C(=O)N2C(C(=O)O)=C(CN3CC[C@@H](N)C3)[C@H](C)C12 (stereo partly shown) [Compound 151],0.25 mg/L,0.5 mg/L,2 mg/L,1 mg/L,0.25 mg/L,0.5 mg/L,2 mg/L,0.25 mg/L,0.5 mg/L,0.25 mg/L,0.25 mg/L,0.25 mg/L,0.5 mg/L,0.5 mg/L,0.5 mg/L,≤ 0.008 mg/L,4 mg/L,4 mg/L,1 mg/L,0.5 mg/L,MIC [12]: 2 mg/L; MIC [13]: 0.5 mg/L; MIC (strain #23 Serratia marcescens): 1 mg/L; MIC (strain #24 Serratia marcescens): 1 mg/L; MIC [14]: 0.5 mg/L; MIC (strain #26 Shigella sonnei): 0.5 mg/L; MIC (strain #27 Shigella flexneri): 0.25 mg/L; MIC [15]: 0.25 mg/L
C[C@@H](O)C1C(=O)N2C(C(=O)O)=C(CN3CC[C@@H](NC(=N)N)C3)[C@H](C)C12 (stereo partly shown) [Compound 156],0.5 mg/L,2 mg/L,4 mg/L,2 mg/L,0.5 mg/L,0.5 mg/L,2 mg/L,0.5 mg/L,1 mg/L,0.5 mg/L,0.5 mg/L,0.5 mg/L,0.5 mg/L,1 mg/L,1 mg/L,≤ 0.008 mg/L,4 mg/L,4 mg/L,2 mg/L,0.5 mg/L,MIC [12]: 2 mg/L; MIC [13]: 1 mg/L; MIC (strain #23 Serratia marcescens): 2 mg/L; MIC (strain #24 Serratia marcescens): 2 mg/L; MIC [14]: 1 mg/L; MIC (strain #26 Shigella sonnei): 0.5 mg/L; MIC (strain #27 Shigella flexneri): 0.5 mg/L; MIC [15]: 0.5 mg/L
C[C@@H](O)C1C(=O)N2C(C(=O)O)=C(CN3CC[C@H](NC(=O)CNS(N)(=O)=O)C3)[C@H](C)C12 (stereo partly shown) [Compound 163],2 mg/L,4 mg/L,8 mg/L,16 mg/L,0.5 mg/L,1 mg/L,2 mg/L,0.5 mg/L,1 mg/L,0.5 mg/L,0.5 mg/L,0.5 mg/L,0.5 mg/L,1 mg/L,1 mg/L,≤ 0.008 mg/L,8 mg/L,8 mg/L,4 mg/L,0.5 mg/L,MIC [12]: 1 mg/L; MIC [13]: 0.5 mg/L; MIC (strain #23 Serratia marcescens): 2 mg/L; MIC (strain #24 Serratia marcescens): 2 mg/L; MIC [14]: 1 mg/L; MIC (strain #26 Shigella sonnei): 0.5 mg/L; MIC (strain #27 Shigella flexneri): 0.5 mg/L; MIC [15]: 1 mg/L
